Results on one compound are retold here after ChEMBL document CHEMBL1144147, “New annonaceous acetogenins from Rollinia mucosa” (J Nat Prod, 1999).

A short description of this assay: Cytotoxicity against human HepG2(2.2.15) cells after 3 day. The assay is classed as functional, cell-based. To be noted: HepG2 2.2.15, 72 h.

SMILES strings stand for the structures. In brackets after ≈: the same amount, converted by molar mass.

As for `COc1cccc2c1C(=O)c1c(O)c3c(c(O)c1C2=O)C[C@@](O)(C(=O)CO)C[C@@H]3O[C@H]1C[C@H](N)[C@H](O)[C@H](C)O1` [DOXORUBICIN], the 50% inhibitory concentration (IC50) amounted to 0.45 µg/mL (≈ 0.828 µM).

The IC50 is the concentration that inhibits the measured activity by half. High values mean weaker potency in that assay, low ones greater potency in that assay.
